# Experimental data taken from article PMC3285556 (Molecular Microbiology, 2011).
# Experiments:
# [1] = target: V. harveyi wild-type CqsS receptor (Vibrio campbellii, UniProt A7N6S2); test: cell-based; type: cell-based
# [2] = target: V. cholerae CqsS receptor (wild-type) (Vibrio cholerae serotype O1, UniProt Q9KM66); type: cell-based
# [3] = target: V. cholerae CqsS C170F (Vibrio cholerae serotype O1, UniProt Q9KM66, C170F); type: cell-based
# [4] = target: V. harveyi CqsA (Vibrio campbellii, UniProt A7N6R9); test: Coupled-enzyme assay for CqsA enzyme kinetics; type: biochemical; conditions: Vh CqsA, acyl CoA substrate, 200 µM SAM
# [5] = target: V. cholerae CqsA (Vibrio cholerae serotype O1, UniProt Q9KM65); test: Coupled-enzyme assay for CqsA enzyme kinetics; type: biochemical; conditions: for Km / Vmax / kcat: Vc CqsA, acyl CoA substrate, 200 µM SAM
compound,measurement,setting,value
CCCCCCCC(O)C(=O)CC (stereo not drawn) [4-hydroxyundecan-3-one],"agonist activity on V. harveyi CqsS (light production in JMH626), in words",[1],inactive
"C/C=C(\N)C(=O)CCCCCCC [Ea-C8-CAI-1, (Z)-3-aminoundec-2-en-4-one]","agonist activity on V. harveyi CqsS (light production in JMH626), in words",[1],induce maximal light production
same,difference in EC50 between C8-CAI-1 and Ea-C8-CAI-1,[2],30 fold
"CCCCCCCCCC(=O)[C@@H](O)CC [CAI-1, (S)-3-hydroxytridecan-4-one]","agonist activity on V. harveyi CqsS (light production in JMH626), in words",[1],insensitive
same,"detection by V. cholerae CqsS C170F, in words",[3],"only detects Ea-C8-CAI-1 and C8-CAI-1, but not CAI-1 and Ea-CAI-1"
"CCCCCCCCCC(=O)[C@@H](N)CC [Am-CAI-1, (S)-3-aminotridecan-4-one]",potency relative to hydroxy counterpart,"[1]; V. harveyi CqsS, data not shown",comparable to the CAI-1 and C8-CAI-1 counterparts
same,potency relative to hydroxy counterpart,"[2]; V. cholerae CqsS, data not shown",comparable to the CAI-1 and C8-CAI-1 counterparts
"CCCCCCCC(=O)SCCNC(=O)CCNC(=O)C(O)C(C)(C)COP(=O)(O)OP(=O)(O)OC[C@H]1O[C@@H](n2cnc3c(N)ncnc32)[C@H](O)[C@@H]1OP(=O)(O)O (stereo partly drawn) [C8 CoA, octanoyl CoA]",Km,[4],14.1 ± 1.3 µM
same,Vmax,[4],0.64 ± 0.02 µM/min
same,kcat,[4],0.178 ± 0.0067 s⁻¹
same,Km,[5],73 ± 4.9 µM
same,Vmax,[5],1.4 ± 0.05 µM/min
same,kcat,[5],0.075 ± 0.00283 s⁻¹
"CCCCCCCCCC(=O)SCCNC(=O)CCNC(=O)C(O)C(C)(C)COP(=O)(O)OP(=O)(O)OC[C@H]1O[C@@H](n2cnc3c(N)ncnc32)[C@H](O)[C@@H]1OP(=O)(O)O (stereo partly drawn) [C10 CoA, decanoyl coenzyme A]","substrate preference of V. cholerae CqsA, C10-CoA over C8-CoA (Km and kcat)",[5],four- to sixfold
same,Km,[5],13 ± 3.1 µM
same,Vmax,[5],1.2 ± 0.15 µM/min
same,kcat,[5],0.325 ± 0.0417 s⁻¹
"CCCCCCCC(=O)C(O)CC (stereo not drawn) [C8-CAI-1, 3-hydroxyundecan-4-one]",EC50,"[1]; EC50, V. harveyi wild-type CqsS",5 µM
same,"agonist activity on V. harveyi CqsS (light production in JMH626), in words",[1],weak agonist
same,increase in light production,"[1]; JMH626, 10 µM",approximately 400 fold
same,light production on increasing the concentration,"[1]; JMH626, 50 µM",did not further activate light production
